Consider two compounds from publication PMC6114103, “17-DMAG inhibits the multiplication of several Babesia species and Theileria equi on in vitro cultures, and Babesia microti in mice” (International Journal for Parasitology: Drugs and Drug …, 2018).

The test system of one data set is NIH/3T3 cells. Briefly: cytotoxicity (drug-exposure viability) assay, CCK-8. The class given is cell-based, mouse. The conditions noted are these: for IC50: Mus musculus, NIH3T3, NIH/3T3, 24 h exposure, CCK-8, read-out: IC50 on cell line NIH/3T3. The procedure: (§1) Each medium was supplemented with 10% fetal bovine serum, 0.5% penicillin/streptomycin (Gibco, Life Technologies, USA), and an additional 1% glutamine. The medium was changed every 3–4 days and incubated until approximately 80% confluent. The cells were free from mycoplasma contamination after being checked by staining with DAPI (Sigma-Aldrich, USA). The detachment of cells from the culture flask was done using TrypLE™ Express (Gibco, Life Technologies, USA) after washing two times with Dulbecco's phosphate-buffered saline (DPBS). Subsequently, the counting of viable cells was carried out using a Neubauer improved C-Chip (NanoEntek Inc., Korea) after staining with 0.4% trypan blue solution. The drug-exposure viability assay was performed in accordance with the recommendation of the Cell Counting Kit-8 (CCK-8, Dojindo, Japan). Briefly, the assay was carried out using a 96-well plate at 37 °C in a humidified incubator with 5% CO2. One hundred microliters of cells at a density of 5 × 10^4 cells/ml was seeded per well and allowed to attach to the plate for 24 h. […] The exposure of drugs was carried out for 24 h, followed by the addition of 10 μl of CCK-8. The plate was further incubated for 3 h, and the absorbance was measured at 450 nm using a microplate reader.

A further data set concerns MDBK cells. The description is as above. Type of data set: cell-based, bovine. Conditions: for IC50: Bos taurus, MDBK, 24 h exposure, CCK-8, read-out: IC50 on cell line MDBK. The procedure: as §1
Data set [1] deals with B. microti (Munich strain). Briefly: inhibition assay using a B. microti-infected mouse model. Type of data set: in vivo, BALB/c mice. Conditions: 5 consecutive days; for day p.i. on which parasite no longer detected in blood smears via microscopy (parasite clearance): 17-DMAG + DA 15 + 15, 17-DMAG + AV 15 + 10, DA + AV 15 + 10 mg/kg BW. The procedure:
B. microti (Munich strain) was recovered from -80 °C stock in two 6-week female Balb/c mice (Clea, Japan). The parasitemia was monitored every 2 days. […] The inhibitory effect of 17-DMAG was also determined using a B. microti mouse model according to the previous protocol ([Goo et al., 2010]). Briefly, 35 female BALB/c mice aged 8 weeks received an intraperitoneal injection of 1 × 10^7 of B. microti-infected RBC and were divided into seven groups. Another group consisting of five mice was kept uninfected and untreated as a control. The multiplication of B. microti was observed from blood smears after staining with Giemsa using a light microscope. The drug treatment was initiated to all infected mice on day five, after the parasitemia reached approximately 1%, and continue to the total of five consecutive days. Group 1 was treated with 4% DMSO in saline water as a control intraperitoneally. […] The parasitemia was estimated from Giemsa-stained blood smears using microscopy in approximately 5000 RBC. Furthermore, the hematology profiles including RBC, hemoglobin, and hematocrit were measured from 10 μl of mouse blood using an automatic hematology analyzer (Celltac α MEK-6450, Nihon Kohden, Tokyo, Japan). The rate of parasitemia, hematology profiles, and mouse body weight was monitored for 60 days. The experiment was repeated once so each group contained 10 mice. […] Combination index (CI) values for the drug combination were calculated using CompuSyn software ([Chou, 2006]). […] The differences among groups regarding the parasitemia, hematology profiles, and body weight in the B. microti-infected mouse model were analyzed using Student's t-test, available in GraphPad Prism software. The difference was considered significant if P < 0.05.

Setting [2] is: 17-DMAG 30, DA 25, AV 20 mg/kg BW.
[3] abbreviates: at a concentration of 40 μM, separate assay.

As to `CO[C@H]1/C=C\C=C(/C)C(=O)NC2=CC(=O)C(NCCN(C)C)=C(C[C@@H](C)C[C@H](OC)[C@H](O)[C@@H](C)/C=C(\C)[C@@H]1OC(N)=O)C2=O` [17-DMAG, 17-dimethylaminoethylamino-17-demethoxygeldanamycin], the IC50 stood at 15.5 ± 4 µM in the data set on NIH/3T3 cells and 8.8 ± 2 µM in the data set with MDBK cells. The peak parasitemia in data set [1] (17-DMAG 30 mg/kg BW intraperitoneal, peak on day 10 p.i., 10 mice) was found to be 4.7 ± 2.0%. The “day p.i. on which parasite no longer detected in blood smears via microscopy (parasite clearance)” value in data set [1] (setting [2]) came to 36 day p.i. Further, the “inhibition of the multiplication of B. microti in mice” value in data set [1] (17-DMAG 30, DA 25, AV 20 mg/kg BW, combinations 17-DMAG 15 with DA 15 or AV 10 mg/kg BW) is recorded as “effectively inhibited”.
As to `O=C1C(O)=C([C@H]2CC[C@H](c3ccc(Cl)cc3)CC2)C(=O)c2ccccc21` [AV, atovaquone], the IC50 with NIH/3T3 cells and in the data set with MDBK cells was more than 40 µM each time. Besides, in the data set with NIH/3T3 cells (setting [3]), the “inhibition on NIH/3T3 cell viability” value is “did not show any inhibition”. In addition, the “inhibition on MDBK cell viability” value in the data set with MDBK cells (setting [3]) is “did not show any inhibition”. In addition, in data set [1] (setting [2]), the “day p.i. on which parasite no longer detected in blood smears via microscopy (parasite clearance)” value is recorded as not above 28 day p.i.
